Experimental data as given in the supplement of paper PMC11061612.

Experiments:
Test in all cases: combination Emax (second highest fraction inhibited in the dose matrix, 72 h); higher = more inhibition; extreme values may be limits of the assay
[1] = test system: BC-1 (B-Cell Non-Hodgkin's Lymphoma)
How it was run: (§1)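 Cell lines in DMEM/F12 or RPMI with 10% FBS were plated in 1536-well plates, held 24 hours at 37°C, 5% CO2, then given two-drug dose matrices for 72 hours (DMSO typically 0.2%). Viability was read by CellTiter-Glo 2.0 luminescence and scaled as inhibition from 0 (vehicle wells) to 1 (blank wells). Combination Emax is the second-highest inhibition in the matrix; Bliss excess is observed combination effect minus expected EA + EB − EA·EB, EA and EB being single-agent effects.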

[2] = test system: C2BBe1 (Colorectal Carcinoma)
How it was run: as §1

[3] = test system: CAL-85-1 (Breast Carcinoma)
How it was run: as §1

[4] = test system: COR-L105 (Lung Adenocarcinoma)
How it was run: as §1

[5] = test system: HT-3 (Cervical Carcinoma)
How it was run: as §1

[6] = test system: IGROV-1 (Ovarian Carcinoma)
How it was run: as §1

[7] = test system: JURL-MK1 (Chronic Myelogenous Leukemia)
How it was run: as §1

MG-63 (Osteosarcoma) = test system: MG-63 (Osteosarcoma)
How it was run: as §1

[8] = test system: MRK-nu-1 (Breast Carcinoma)
How it was run: as §1

[9] = test system: NCI-H1435 (Non-Small Cell Lung Carcinoma)
How it was run: as §1

NCI-H2452 (Mesothelioma) = test system: NCI-H2452 (Mesothelioma)
How it was run: as §1

[10] = test system: NTERA-2-cl-D1 (Other Solid Carcinomas)
How it was run: as §1

[11] = test system: OVKATE (Ovarian Carcinoma)
How it was run: as §1

[12] = test system: RS4-11 (B-Lymphoblastic Leukemia)
How it was run: as §1

[13] = test system: SBC-3 (Small Cell Lung Carcinoma)
How it was run: as §1

[14] = test system: SBC-5 (Small Cell Lung Carcinoma)
How it was run: as §1

SK-MEL-24 (Melanoma) = test system: SK-MEL-24 (Melanoma)
How it was run: as §1

[15] = test system: SUP-HD1 (Hodgkin's Lymphoma)
How it was run: as §1

[16] = test system: SW1463 (Colorectal Carcinoma)
How it was run: as §1

| SMILES | combination Emax [1] | combination Emax [2] | combination Emax [3] | combination Emax [4] | combination Emax [5] | combination Emax [6] | combination Emax [7] | combination Emax (MG-63 (Osteosarcoma)) | combination Emax [8] | combination Emax [9] | combination Emax (NCI-H2452 (Mesothelioma)) | combination Emax [10] | combination Emax [11] | combination Emax [12] | combination Emax [13] | combination Emax [14] | combination Emax (SK-MEL-24 (Melanoma)) | combination Emax [15] | combination Emax [16] |
| --- | --- | --- | --- | --- | --- | --- | --- | --- | --- | --- | --- | --- | --- | --- | --- | --- | --- | --- | --- |
| Cc1c2c(nn1C)CSCc1cc(n(C)n1)CSc1cc(c3ccccc3c1)OCCCc1c(C(=O)O)n(C)c3c-2c(Cl)ccc13 [AZD5991] + C[C@@H]1COCCN1C2=NC(=NC(=C2)C3(CC3)[S@](=N)(=O)C)C4=C5C=CNC5=NC=C4 [AZD6738] (first compound max 1 µM, 7x7, partner max 10 µM) | 1 | 0.452 | 0.584 | 0.511 | 0.907 | 0.852 | 1 | 0.491 | 1 | 0.217 | 0.579 | 0.928 | 0.421 | 1 | 0.746 | 0.9 | 0.549 | 0.891 | 0.506 |
| CCN(CCO)CCCOc1ccc2c(Nc3cc(CC(=O)Nc4cccc(F)c4)[nH]n3)ncnc2c1 [AZD2811] + C[C@@H]1COCCN1C2=NC(=NC(=C2)C3(CC3)[S@](=N)(=O)C)C4=C5C=CNC5=NC=C4 [AZD6738] (first compound max 1 µM, 7x7, partner max 10 µM) | 0.921 | 0.279 | 0.481 | 0.45 | 0.694 | 0.646 | 1 | 0.677 | 0.732 | 0.17 | 0.431 | 0.784 | 0.344 | 1 | 0.656 | 0.754 | 0.428 | 0.781 | 0.46 |
| C=CCn1c(=O)c2cnc(Nc3ccc(N4CCN(C)CC4)cc3)nc2n1-c1cccc(C(C)(C)O)n1 [AZD1775] + O=C(c1cc(Cc2n[nH]c(=O)c3ccccc23)ccc1F)N1CCN(C(=O)C2CC2)CC1 [Olaparib] (first compound max 1 µM, partner max 10 µM) | 0.998 | 0.335 | 0.394 | 0.436 | 0.339 | 0.769 | 0.994 | 0.548 | 0.336 | 0.296 | 0.574 | 0.914 | 0.311 | 0.952 | 0.621 | 0.507 | 0.465 | 0.871 | 0.521 |
| CC1(C)CCC(CN2CCN(c3ccc(C(=O)NS(=O)(=O)c4ccc(NCC5CCOCC5)c([N+](=O)[O-])c4)c(Oc4cnc5[nH]ccc5c4)c3)CC2)=C(c2ccc(Cl)cc2)C1 [Venetoclax] + COc1cc(Nc2ncc3c(n2)-c2ccc(Cl)cc2C(c2c(F)cccc2OC)=NC3)ccc1C(=O)O [Alisertib] (first compound max 1 µM, 7x7, partner max 10 µM) | 0.943 | 0.516 | 0.438 | 0.377 | 0.0652 | 0.789 | 0.964 | 0.669 | 0.628 | 0.287 | 0.573 | 0.954 | 0.311 | 1 | 0.942 | 0.615 | 0.401 | 0.906 | 0.656 |
| CN(C)CCCOc1ccc(-c2ccc3ncc4c(c3c2)n(C2CCOCC2)c(=O)n4C)cn1 [AZD0156] + C[C@@H]1COCCN1C2=NC(=NC(=C2)C3(CC3)[S@](=N)(=O)C)C4=C5C=CNC5=NC=C4 [AZD6738] (first compound max 1 µM, 7x7, partner max 10 µM) | 0.936 | 0.434 | 0.446 | 0.472 | 0.609 | 0.724 | 0.998 | 0.706 | 0.648 | 0.158 | 0.559 | 0.595 | 0.257 | 0.943 | 0.798 | 0.813 | 0.457 | 0.785 | 0.558 |
| C=CCn1c(=O)c2cnc(Nc3ccc(N4CCN(C)CC4)cc3)nc2n1-c1cccc(C(C)(C)O)n1 [AZD1775] + C[C@@H]1COCCN1C2=NC(=NC(=C2)C3(CC3)[S@](=N)(=O)C)C4=C5C=CNC5=NC=C4 [AZD6738] (first compound max 1 µM, partner max 10 µM) | 1 | 0.486 | 0.669 | 0.595 | 0.832 | 0.827 | 1 | 0.854 | 0.802 | 0.398 | 0.747 | 0.943 | 0.422 | 0.994 | 0.889 | 0.929 | 0.725 | 0.887 | 0.822 |
| CC1(C)CCC(CN2CCN(c3ccc(C(=O)NS(=O)(=O)c4ccc(NCC5CCOCC5)c([N+](=O)[O-])c4)c(Oc4cnc5[nH]ccc5c4)c3)CC2)=C(c2ccc(Cl)cc2)C1 [Venetoclax] + C=CCn1c(=O)c2cnc(Nc3ccc(N4CCN(C)CC4)cc3)nc2n1-c1cccc(C(C)(C)O)n1 [AZD1775] (first compound max 1 µM, partner max 1 µM) | 1 | 0.39 | 0.473 | 0.372 | 0.191 | 0.819 | 0.999 | 0.626 | 0.294 | 0.35 | 0.739 | 0.856 | 0.381 | 1 | 0.899 | 0.459 | 0.401 | 0.921 | 0.36 |
| Cc1c2c(nn1C)CSCc1cc(n(C)n1)CSc1cc(c3ccccc3c1)OCCCc1c(C(=O)O)n(C)c3c-2c(Cl)ccc13 [AZD5991] + Cn1cnc2c(F)c(Nc3ccc(Br)cc3Cl)c(C(=O)NOCCO)cc21 [Selumetinib] (first compound max 1 µM, 7x7, partner max 3 µM) | 1 | 0.425 | 0.584 | 0.463 | 0.789 | 0.734 | 0.952 | 0.251 | 1 | 0.26 | 0.32 | 0.562 | 0.265 | 0.497 | 0.225 | 0.415 | 0.705 | 0.593 | 0.547 |
| CC1(C)CCC(CN2CCN(c3ccc(C(=O)NS(=O)(=O)c4ccc(NCC5CCOCC5)c([N+](=O)[O-])c4)c(Oc4cnc5[nH]ccc5c4)c3)CC2)=C(c2ccc(Cl)cc2)C1 [Venetoclax] + Cn1cnc2c(F)c(Nc3ccc(Br)cc3Cl)c(C(=O)NOCCO)cc21 [Selumetinib] (first compound max 1 µM, 7x7, partner max 3 µM) | 0.408 | 0.329 | 0.356 | 0.362 | 0.118 | 0.595 | 0.876 | 0.148 | 0.235 | 0.156 | 0.181 | 0.742 | 0.217 | 1 | 0.605 | 0.18 | 0.553 | 0.809 | 0.352 |
| Cc1c2c(nn1C)CSCc1cc(n(C)n1)CSc1cc(c3ccccc3c1)OCCCc1c(C(=O)O)n(C)c3c-2c(Cl)ccc13 [AZD5991] + C=CCn1c(=O)c2cnc(Nc3ccc(N4CCN(C)CC4)cc3)nc2n1-c1cccc(C(C)(C)O)n1 [AZD1775] (first compound max 1 µM, partner max 1 µM) | 1 | 0.341 | 0.43 | 0.454 | 0.631 | 0.88 | 0.999 | 0.395 | 1 | 0.276 | 0.623 | 0.82 | 0.428 | 0.995 | 0.602 | 0.694 | 0.478 | 0.82 | 0.471 |
| CN(CCO)CC[C@H](CSc1ccccc1)Nc1ccc(S(=O)(=O)NC(=O)c2ccc(N3CCC([C@@H](O)c4ccccc4-c4ccc(Cl)cc4)CC3)cc2)cc1S(=O)(=O)C(F)(F)F [AZD4320] + C=CCn1c(=O)c2cnc(Nc3ccc(N4CCN(C)CC4)cc3)nc2n1-c1cccc(C(C)(C)O)n1 [AZD1775] (first compound max 1 µM, partner max 1 µM) | 0.999 | 0.346 | 0.439 | 0.478 | 0.264 | 0.894 | 1 | 0.266 | 0.174 | 0.801 | 0.737 | 0.775 | 0.528 | 1 | 0.69 | 0.406 | 0.582 | 0.952 | 0.468 |
| Cc1c2c(nn1C)CSCc1cc(n(C)n1)CSc1cc(c3ccccc3c1)OCCCc1c(C(=O)O)n(C)c3c-2c(Cl)ccc13 [AZD5991] + C[C@@H](Nc1cc(F)cc(F)c1)c1cc(C(=O)N(C)C)cc2c(=O)cc(N3CCOCC3)oc12 [AZD8186] (first compound max 1 µM, 7x7, partner max 3 µM) | 1 | 0.335 | 0.243 | 0.238 | 0.482 | 0.8 | 0.629 | 0.357 | 1 | 0.276 | 0.357 | 0.682 | 0.353 | 0.591 | 0.376 | 0.845 | 0.388 | 0.659 | 0.188 |
| CCN(CCO)CCCOc1ccc2c(Nc3cc(CC(=O)Nc4cccc(F)c4)[nH]n3)ncnc2c1 [AZD2811] + O=C(c1cc(Cc2n[nH]c(=O)c3ccccc23)ccc1F)N1CCN(C(=O)C2CC2)CC1 [Olaparib] (first compound max 1 µM, 7x7, partner max 10 µM) | 0.669 | 0.131 | 0.0869 | 0.231 | 0.18 | 0.303 | 0.688 | 0.335 | 0.491 | 0.196 | 0.423 | 0.65 | 0.239 | 0.987 | 0.617 | 0.392 | 0.225 | 0.718 | 0.226 |
